Results as given in patent publication US8501683B2, “Cycloundecadepsipeptide compounds and use of said compounds as a medicament” (priority 2008, dated 2013).
pEC50, pIC50: −log10 of the molar value. Square brackets hold non-standard residues; d marks the D form. Peptide text beside a SMILES is read from it. MeBmt = C/C=C/C[C@@H](C)[C@@H](O)[C@H](NC)C(=O)O; NEtVal = CCN[C@H](C(=O)O)C(C)C; NMeL = CN[C@@H](CC(C)C)C(=O)O; NMeV = CN[C@H](C(=O)O)C(C)C; dHiv = CC(C)[C@@H](O)C(=O)O; NMeA = CN[C@@H](C)C(=O)O; dNMeA = CN[C@H](C)C(=O)O; Abu = CC[C@H](N)C(=O)O

Key:
[1] = target: multidrug resistance associated protein 2 (MRP2) (Homo sapiens, UniProt Q92887)
multidrug resistance associated protein 2 (MRP2), sequence (Q92887 whole entry): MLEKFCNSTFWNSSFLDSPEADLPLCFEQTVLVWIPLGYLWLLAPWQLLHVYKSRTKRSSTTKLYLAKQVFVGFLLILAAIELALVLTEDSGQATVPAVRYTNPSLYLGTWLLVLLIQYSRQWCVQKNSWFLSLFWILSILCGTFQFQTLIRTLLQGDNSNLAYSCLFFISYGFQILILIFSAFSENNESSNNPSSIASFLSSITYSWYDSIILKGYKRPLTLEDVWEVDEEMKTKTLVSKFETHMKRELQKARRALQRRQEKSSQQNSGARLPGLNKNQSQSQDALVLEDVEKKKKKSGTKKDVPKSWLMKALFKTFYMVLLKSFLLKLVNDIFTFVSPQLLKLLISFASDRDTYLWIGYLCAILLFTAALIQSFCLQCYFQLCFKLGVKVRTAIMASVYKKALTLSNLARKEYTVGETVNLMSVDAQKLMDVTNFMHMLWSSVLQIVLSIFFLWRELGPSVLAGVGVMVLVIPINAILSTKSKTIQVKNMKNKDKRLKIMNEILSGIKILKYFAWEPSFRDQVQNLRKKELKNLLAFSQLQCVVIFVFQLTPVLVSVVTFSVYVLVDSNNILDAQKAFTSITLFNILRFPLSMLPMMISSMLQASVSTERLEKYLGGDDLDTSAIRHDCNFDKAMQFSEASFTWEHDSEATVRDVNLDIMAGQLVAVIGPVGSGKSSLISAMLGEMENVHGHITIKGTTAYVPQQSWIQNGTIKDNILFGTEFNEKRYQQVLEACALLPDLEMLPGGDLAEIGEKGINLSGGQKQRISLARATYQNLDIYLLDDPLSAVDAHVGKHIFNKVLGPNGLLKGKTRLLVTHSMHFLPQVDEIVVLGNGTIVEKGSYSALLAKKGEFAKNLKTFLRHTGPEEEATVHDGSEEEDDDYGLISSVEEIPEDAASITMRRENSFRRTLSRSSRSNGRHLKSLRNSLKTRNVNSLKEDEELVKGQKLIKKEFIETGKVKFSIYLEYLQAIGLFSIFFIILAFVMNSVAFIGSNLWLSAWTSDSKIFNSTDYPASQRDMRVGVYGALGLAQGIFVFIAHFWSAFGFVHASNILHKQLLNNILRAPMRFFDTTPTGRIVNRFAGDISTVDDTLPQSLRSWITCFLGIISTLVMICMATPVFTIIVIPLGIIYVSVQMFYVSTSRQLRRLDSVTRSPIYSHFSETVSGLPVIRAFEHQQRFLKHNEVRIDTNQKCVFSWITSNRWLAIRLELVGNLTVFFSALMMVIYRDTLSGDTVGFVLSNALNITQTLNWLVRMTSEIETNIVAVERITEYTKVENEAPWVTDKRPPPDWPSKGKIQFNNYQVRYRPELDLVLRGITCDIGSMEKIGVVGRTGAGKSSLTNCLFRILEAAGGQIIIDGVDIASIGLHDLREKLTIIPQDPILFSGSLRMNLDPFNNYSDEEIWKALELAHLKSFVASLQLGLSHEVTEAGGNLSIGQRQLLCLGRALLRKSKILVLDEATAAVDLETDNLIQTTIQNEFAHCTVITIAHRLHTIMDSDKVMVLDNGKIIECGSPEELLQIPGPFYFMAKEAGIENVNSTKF
Method: (§1) To determine whether the cycloundecadepsipeptide compounds of the present invention interact with hepatic transporters, experiments were carried out that compared the concentration-dependent inhibition towards the multidrug resistance associated protein 2 (MRP2), the organic anion transporting polypeptide 1B1 (OATP1B1), the bile salt export pump (BSEP) and the sodium-taurocholate cotransporting polypeptide (NTCP). These transporters are involved in the hepatobiliary circulation of endogenous compounds such as bile salts or bilirubin (for a review, see C. Pauli-Magnus et al, J. Hepatology, 2005, 43:342-357). Some of them also contribute to the elimination of xenobiotics.
(§2) MRP2 and BSEP were expressed by SOLVO Biotechnology in Spodoptera frugiperda (Sf9) ovarian cells, by infecting the insect cells with a recombinant baculovirus. The inhibition of the transport of the radioactive probe substrates (estradiol-17-beta-glucuronide and taurocholate for MRP2 and BSEP, respectively) into inside-out membrane vesicles, containing the transporter, was measured by scintillation counting.
(§3) The IC50 (defined as the concentration required for inhibiting the transport of the probe substrate by 50%, half maximal inhibitory concentration) of the compounds was derived from the concentration-response curve and compared to the IC50 of Debio 025 (IC50 ratio expressed as “fold Debio 025” in the tables).

[2] = target: bile salt export pump (BSEP) (Homo sapiens, UniProt O95342); settings: for BSEP fold Debio 025: IC50 ratio compared to Debio 025
bile salt export pump (BSEP), sequence (O95342 whole entry): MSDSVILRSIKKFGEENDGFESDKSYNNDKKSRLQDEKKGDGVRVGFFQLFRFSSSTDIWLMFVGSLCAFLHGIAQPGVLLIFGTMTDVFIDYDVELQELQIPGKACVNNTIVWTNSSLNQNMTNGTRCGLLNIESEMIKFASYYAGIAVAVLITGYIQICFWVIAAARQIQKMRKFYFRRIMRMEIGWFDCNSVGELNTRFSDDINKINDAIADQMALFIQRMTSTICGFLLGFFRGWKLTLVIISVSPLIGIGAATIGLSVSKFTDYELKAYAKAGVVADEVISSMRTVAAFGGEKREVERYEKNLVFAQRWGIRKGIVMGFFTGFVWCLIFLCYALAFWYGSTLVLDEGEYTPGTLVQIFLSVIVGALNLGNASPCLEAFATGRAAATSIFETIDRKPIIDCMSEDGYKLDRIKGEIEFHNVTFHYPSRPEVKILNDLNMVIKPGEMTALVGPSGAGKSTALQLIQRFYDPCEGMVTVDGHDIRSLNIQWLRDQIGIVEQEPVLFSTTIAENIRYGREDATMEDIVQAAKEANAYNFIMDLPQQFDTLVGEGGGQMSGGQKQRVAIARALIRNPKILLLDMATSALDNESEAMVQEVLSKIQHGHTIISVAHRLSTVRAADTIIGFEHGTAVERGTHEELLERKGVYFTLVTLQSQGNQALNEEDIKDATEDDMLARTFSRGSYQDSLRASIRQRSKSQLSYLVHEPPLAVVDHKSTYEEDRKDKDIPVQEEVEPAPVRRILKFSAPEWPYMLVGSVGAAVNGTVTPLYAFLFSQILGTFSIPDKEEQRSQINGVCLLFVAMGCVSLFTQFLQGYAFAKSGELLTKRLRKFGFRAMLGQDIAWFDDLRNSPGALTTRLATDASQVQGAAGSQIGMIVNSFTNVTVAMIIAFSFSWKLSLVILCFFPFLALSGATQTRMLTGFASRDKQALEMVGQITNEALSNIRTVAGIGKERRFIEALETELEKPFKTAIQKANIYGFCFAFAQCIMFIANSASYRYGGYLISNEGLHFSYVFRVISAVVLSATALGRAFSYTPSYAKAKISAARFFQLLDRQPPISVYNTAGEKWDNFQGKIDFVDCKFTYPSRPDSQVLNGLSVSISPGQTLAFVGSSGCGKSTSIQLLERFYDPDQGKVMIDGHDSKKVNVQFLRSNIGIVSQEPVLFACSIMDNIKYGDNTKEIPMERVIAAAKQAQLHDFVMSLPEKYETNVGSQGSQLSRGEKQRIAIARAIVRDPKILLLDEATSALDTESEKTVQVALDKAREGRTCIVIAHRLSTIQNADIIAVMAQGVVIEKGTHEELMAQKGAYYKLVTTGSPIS
Method: as §1, §2, §3

[3] = test system: Concanavalin-A-induced T-cell proliferation; assay: Concanavalin-A-induced T-cell proliferation assay (immunosuppression); format: cell-based; settings: inhibition of Concanavalin-A-induced T-cell proliferation
Method: To determine whether the cycloundecadepsipepide compounds of the present invention have a non-immunosuppression activity, experiments were carried out that compared the dose-dependent inhibition of Concanavalin-A-induced T-cell proliferation (see Table 2).
The method of the assays were performed as described by Dayton et al. (1992. Mol. Pharmacol. 41. 671-676) and Mishell et al. (1980. Cell proliferation in selected methods in cellular immunology, V, XXIX, W.H. Freeman Co., San Francisco, Calif. 153-160).

[4] = Cytostatic/cytotoxic effect, MTT (MTS) assay in Huh 9-13 cells; format: cell-based; settings: human, Huh 9-13 cells containing the HCV genotype 1b Con1 replicon, metabolic activity reduced to 50% of untreated cells
Source text: Assays used Huh 9-13 containing the hepatitis C virus genotype 1b Con1 replicon (Lohmann et al. 2001. J. Virol. 75:1437-1449; and Lohmann et al. 1999. Science. 285:110-113). Cells were sub-cultured in cell growth medium DMEM supplemented with 10% FCS, 1% non-essential amino acids, 1% penicillin/streptomycin and 2% Geneticin (Invitrogen) at a ratio of 1:4-1:5 and grown for 3-4 days in 75 cm^2 tissue culture flasks (Techno Plastic Products), were harvested and seeded in assay medium (DMEM, 10% FCS, 1% non-essential amino acids, 1% penicillin/streptomycin) at a density of 5 000 cells/well (100 μl/well) in 96-well tissue culture microtiter plates (Falcon, Beckton Dickinson) for evaluation of cytostatic/cytotoxic and antiviral effect. The microtiter plates were incubated overnight (37° C., 5% CO2, 95-99% relative humidity), yielding a non-confluent cell monolayer.
Cell density and cytostatic effects were estimated in parallel cultures in regular 96-well plates (Beckton-Dickinson) using the MTT assay (CellTiter 96 AQueous Non-Radioactive Cell Proliferation Assay, Promega). In this assay, 3-(4,5-dimethyl-thiazol-2-yl)-5-(3-carboxymethoxy-phenyl)-2-(4-sulfophenyl)-2H-tetrazolium (MTS) is bioreduced to a formazan that is quantified at 498 nm in a plate reader. Formazan production is directly correlated with number of life cells. Absorbance was measured at a wavelength of 498 nm (Safire^2, Tecan) and optical densities (OD values) were converted to percentage of untreated controls.
The compounds were dissolved in DMSO at a concentration of 4 mmole/L. Stock solutions were immediately used to set up the experiments. The compounds were tested at 24 different concentrations ranging from 0.0001 μmole/L to 100 μmole/L. The highest concentration of DMSO in the assay was determined to be 2.5% (at 100 μM final concentration of the compound). During the assay setup, the DMSO percentage decreased concomitantly with decrease in concentration of the compound.
The EC50 (value derived from the dose-response curve) represents the concentration at which 50% inhibition of viral replication is observed. The CC50 (value derived from the dose-response curve) represents the concentration at which the metabolic activity of the cells is reduced to 50% of the metabolic activity of untreated cells.
Results from these experiments permitted calculation of EC50±SD (standard deviation or Std. Dev.), which is the effective concentration required to inhibit HCV replicon replication by 50%, and of CC50±SD (whenever possible), which is the concentration required that inhibits the proliferation of exponentially growing cells by 50%. EC50 and CC50±SD values were calculated respectively as the median of all the EC50, or CC50 values derived from the 3 individual dose-response curves. The selectivity index (SI), indicative of the therapeutic window of the compound was calculated as the ratio between CC50 and EC50.

[5] = test system: hepatitis C virus genotype 1b Con1 replicon; assay: HCV replicon assay, replicon RNA by RT-qPCR in Huh 9-13 cells; format: cell-based; settings: 50% inhibition of HCV replicon replication, 3 dose-response curves
Method: For the evaluation of antiviral effects, assay medium was aspirated and the plates with dry monolayer were stored at −80° C. awaiting extraction. Following thawing of the plates at room temperature, the cell monolayer was lysed with 100 μl of cell-to-cDNA lysis buffer (Invitrogen). Lysis of the cells was allowed to proceed for 10 min at room temperature after which all liquid was transferred to a PCR plate (Axygen). The PCR plate was incubated for 15 min at 75° C. […] The lysate was diluted 1:2 with RNase/DNase-free water, after which 5 μl was transferred to the real-time PCR plate (Applied Biosystems).
Replicon RNA content was quantified using a real-time quantitative one-step RT-PCR method (RT-qPCR): Low Rox One-Step RT-qPCR master mix, Abgene). […] The fluorogenic probe was 5′-[sequence]-3′. The analysis of the samples were performed using a SDS7500F (Applied Biosystems, standard thermocycling profile: 30 min at 48° C., 10 min at 95° C., 40 cycles of 15 sec at 95° C. and 1 min at 60° C.) after which replicon RNA quantities were converted to percentage of untreated controls.

[6] = target: T1, sodium-taurocholate cotransporting polypeptide (NTCP) (Homo sapiens, UniProt Q14973); assay: NTCP inhibition, taurocholate uptake in CHO cells; format: in vitro ADME; settings: for NTCP fold Debio 025: IC50 ratio compared to Debio 025; for pIC50 / NTCP IC50: probe taurocholate, CHO cells
T1 sequence (Q14973 1-349): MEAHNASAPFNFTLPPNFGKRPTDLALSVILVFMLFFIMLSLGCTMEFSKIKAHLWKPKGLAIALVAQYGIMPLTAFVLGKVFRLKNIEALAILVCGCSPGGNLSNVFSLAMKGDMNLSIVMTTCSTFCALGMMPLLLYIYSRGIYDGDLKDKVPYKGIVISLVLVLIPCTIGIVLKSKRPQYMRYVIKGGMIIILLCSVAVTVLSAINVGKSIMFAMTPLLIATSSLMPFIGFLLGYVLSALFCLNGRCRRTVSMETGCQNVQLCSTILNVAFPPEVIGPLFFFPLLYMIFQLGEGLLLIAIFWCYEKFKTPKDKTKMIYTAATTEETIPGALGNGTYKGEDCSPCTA

[7] = target: organic anion transporting polypeptide 1B1 (OATP1B1) (Homo sapiens, UniProt Q9Y6L6)
organic anion transporting polypeptide 1B1 (OATP1B1), sequence (Q9Y6L6 whole entry): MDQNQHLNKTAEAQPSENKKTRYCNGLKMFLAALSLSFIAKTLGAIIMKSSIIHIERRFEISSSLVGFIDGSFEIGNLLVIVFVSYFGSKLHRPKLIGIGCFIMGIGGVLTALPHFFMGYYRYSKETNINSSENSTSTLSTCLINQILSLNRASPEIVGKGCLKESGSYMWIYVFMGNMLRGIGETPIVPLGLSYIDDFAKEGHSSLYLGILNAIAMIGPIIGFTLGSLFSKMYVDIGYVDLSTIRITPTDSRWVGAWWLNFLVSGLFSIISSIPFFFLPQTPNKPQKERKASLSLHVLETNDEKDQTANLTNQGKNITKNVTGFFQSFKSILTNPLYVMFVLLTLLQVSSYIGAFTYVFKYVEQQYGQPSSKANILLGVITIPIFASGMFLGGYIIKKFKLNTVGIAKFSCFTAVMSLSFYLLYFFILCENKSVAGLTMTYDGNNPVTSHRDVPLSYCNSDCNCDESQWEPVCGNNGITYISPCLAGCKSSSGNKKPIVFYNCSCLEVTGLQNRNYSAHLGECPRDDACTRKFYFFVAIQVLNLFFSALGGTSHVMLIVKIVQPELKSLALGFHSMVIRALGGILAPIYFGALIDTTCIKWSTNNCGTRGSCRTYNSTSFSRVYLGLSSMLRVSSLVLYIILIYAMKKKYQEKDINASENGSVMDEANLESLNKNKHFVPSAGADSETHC
Method: as §1
OATP1B1 and NTCP assays were performed with Chinese hamster ovary (CHO) cells expressing these human uptake transporters. The amount of the transported probe substrate (estrone-3-sulfate and taurocholate for OATP1B1 and NTCP, respectively) was determined by liquid scintillation or fluorescent photometry after cell lysis.
as §3

SMILES | MRP2 IC50 [1] | pIC50 [2] | BSEP fold Debio 025 [2] | pIC50 [3] | CC50 [4] [nM] | pEC50 [5] | NTCP fold Debio 025 [6] | pIC50 [6] | pIC50 [7] | OATP1B fold Debio 025 [7] | pIC50 [1] | MRP2 fold Debio 025 ([1]; IC50 ratio compared to Debio 025) | NTCP IC50 [6]
C/C=C/C[C@@H](C)[C@@H](O)[C@H]1C(=O)N[C@@H](CC)C(=O)N(C)[C@H](C)C(=O)N(C)[C@@H](C(C)C)C(=O)N[C@@H](CC(C)C)C(=O)N(C)[C@@H](CC(C)C)C(=O)N[C@@H](C)C(=O)O[C@H](C(C)C)C(=O)N(C)[C@@H](CC(C)C)C(=O)N[C@@H](CC(C)C)C(=O)N(C)[C@@H](C(C)C)C(=O)N1C [(Id), cyclo-(MeBmt-Abu-D-MeAla-MeVal-Leu-MeLeu-Ala-D-Hiv-MeLeu-Leu-MeVal)] (cyclo(A[dHiv][NMeL]L[NMeV][MeBmt][Abu][dNMeA][NMeV]L[NMeL])) | n.i. | 6.24 | 0.42 | 5.84 | 44400 | 7.60 | 1.2 | 5.60 | 5.10 | 0.05 |  |  | 
C/C=C/C[C@@H](C)[C@@H](O)[C@H]1C(=O)N[C@@H](CC)C(=O)N(C)[C@H](C)C(=O)N(C)[C@@H](C(C)C)C(=O)N[C@@H](C(C)C)C(=O)N(C)[C@@H](C)C(=O)N[C@@H](C)C(=O)O[C@H](C(C)C)C(=O)N(C)[C@@H](CC(C)C)C(=O)N[C@@H](CC(C)C)C(=O)N(C)[C@@H](C(C)C)C(=O)N1C [(Ie), cyclo-(MeBmt-Abu-D-MeAla-MeVal-Val-MeAla-Ala-D-Hiv-MeLeu-Leu-MeVal)] (cyclo(A[dHiv][NMeL]L[NMeV][MeBmt][Abu][dNMeA][NMeV]V[NMeA])) |  | 6.22 | 0.40 | 5.70 | 8300 | 7.15 | 0.12 | 4.59 | 6.24 | 0.72 | 4.70 | 0.73 | 
C/C=C/C[C@@H](C)[C@@H](O)[C@H]1C(=O)N[C@@H](C(C)C)C(=O)N(C)[C@H](C)C(=O)N(C)[C@@H](C(C)C)C(=O)N[C@@H](CC(C)C)C(=O)N(C)[C@@H](CC(C)C)C(=O)NCC(=O)O[C@H](C(C)C)C(=O)N(C)[C@@H](CC(C)C)C(=O)N[C@@H](CC(C)C)C(=O)N(C)[C@@H](C(C)C)C(=O)N1C [(If), cyclo-(MeBmt-Val-D-MeAla-MeVal-Leu-MeLeu-Gly-D-Hiv-MeLeu-Leu-MeVal)] (cyclo(G[dHiv][NMeL]L[NMeV][MeBmt]V[dNMeA][NMeV]L[NMeL])) | n.i. | 6.32 | 0.50 | 5.11 | 81800 | 7.60 |  |  | 4.82 | 0.03 |  |  | n.i.
C/C=C/C[C@@H](C)[C@@H](O)[C@H]1C(=O)N[C@@H](C(C)C)C(=O)N(C)[C@H](C)C(=O)N(CC)[C@@H](C(C)C)C(=O)N[C@@H](CC(C)C)C(=O)N(C)[C@@H](CC(C)C)C(=O)N[C@@H](C)C(=O)O[C@H](C(C)C)C(=O)N(C)[C@@H](CC(C)C)C(=O)N[C@@H](CC(C)C)C(=O)N(C)[C@@H](C(C)C)C(=O)N1C [(Ih), cyclo-(MeBmt-Val-D-MeAla-EtVal-Leu-MeLeu-Ala-D-Hiv-MeLeu-Leu-MeVal)] (cyclo(A[dHiv][NMeL]L[NMeV][MeBmt]V[dNMeA][NEtVal]L[NMeL])) | n.i. | 6.52 | 0.80 | 5.76 | 20500 | 7.66 |  |  | 4.92 | 0.04 |  |  | n.i.
